According to the supplement of paper PMC13380429:

Tests used:
Conditions in all cases: 72 h
Caco-2 [1] = assay: cell viability relative to DMSO; higher = less toxic
Calu-3 [2] = assay: as above
HepG2 [3] = assay: as above
U2OS [4] = assay: as above
Vero E6 [5] = assay: as above
Calu-3 [6] = assay: relative viability EC50 (midpoint between 100% and the lowest measured viability); higher = less toxic
HepG2 [7] = assay: as above
U2OS [8] = assay: as above
Vero E6 [9] = assay: as above
Caco-2 [10] = assay: drug sensitivity score (DSS) for viability; higher = more toxic; extreme values may be limits of the assay
Calu-3 [11] = assay: as above
HepG2 [12] = assay: as above
U2OS [13] = assay: as above
Vero E6 [14] = assay: as above
Caco-2 [15] = assay: relative viability EC50 (midpoint between 100% and the lowest measured viability); higher = less toxic

Compound	cell viability (Caco-2 [1]; 1 nM) [%]	cell viability (Caco-2 [1]; 10 nM) [%]	cell viability (Caco-2 [1]; 100 nM) [%]	cell viability (Caco-2 [1]; 1000 nM) [%]	cell viability (Caco-2 [1]; 10000 nM) [%]	cell viability (Calu-3 [2]; 1 nM) [%]	cell viability (Calu-3 [2]; 10 nM) [%]	cell viability (Calu-3 [2]; 100 nM) [%]	cell viability (Calu-3 [2]; 1000 nM) [%]	cell viability (Calu-3 [2]; 10000 nM) [%]	cell viability (HepG2 [3]; 1 nM) [%]	cell viability (HepG2 [3]; 10 nM) [%]	cell viability (HepG2 [3]; 100 nM) [%]	cell viability (HepG2 [3]; 1000 nM) [%]	cell viability (HepG2 [3]; 10000 nM) [%]	cell viability (U2OS [4]; 1 nM) [%]	cell viability (U2OS [4]; 10 nM) [%]	cell viability (U2OS [4]; 100 nM) [%]	cell viability (U2OS [4]; 1000 nM) [%]	cell viability (U2OS [4]; 10000 nM) [%]	cell viability (Vero E6 [5]; 1 nM) [%]	cell viability (Vero E6 [5]; 10 nM) [%]	cell viability (Vero E6 [5]; 100 nM) [%]	cell viability (Vero E6 [5]; 1000 nM) [%]	cell viability (Vero E6 [5]; 10000 nM) [%]	relative viability EC50 (Calu-3 [6]) [µM]	relative viability EC50 (HepG2 [7]) [µM]	relative viability EC50 (U2OS [8]) [µM]	relative viability EC50 (Vero E6 [9]) [µM]	drug sensitivity score (Caco-2 [10])	drug sensitivity score (Calu-3 [11])	drug sensitivity score (HepG2 [12])	drug sensitivity score (U2OS [13])	drug sensitivity score (Vero E6 [14])	relative viability EC50 (Caco-2 [15]) [µM]
CN1CCN(c2ccc(OC(F)(F)F)c(Nc3ncc4c(n3)-c3c(c(C(N)=O)nn3CCO)CC4)c2)CC1	104	94.9	77.3	52	62.3	100	105	78.7	84.9	84.7	105	95	70.4	16.7	15.8	108	103	98.2	46.5	41.3	102	112	99.7	52.4	48.3	> 10	0.139	0.394	0.395	11	5.1	18.8	10	8.8	–
CON(C)C(=O)[C@H](O)[C@H](Cc1ccccc1)NC(=O)c1cc2cc(Cl)ccc2[nH]1	91.9	105	92.9	100	90.4	88.7	109	92.7	106	118	105	95.3	103	90.5	90.1	99.3	102	98.6	101	95.9	106	101	103	94.2	101	> 10	> 10	> 10	> 10	0	0	0	0	0	> 10
CO[C@H]1CC[C@@H](C(=O)c2ccc3nc4c(cc3c2)CCCO4)CC1	90.8	90.3	104	99.2	92.7	–	–	–	–	–	99.5	107	104	102	104	99.8	93.8	104	97.8	101	102	103	93.1	99	100	–	> 10	> 10	> 10	0	–	0	0	0	> 10
COc1cc(NC(=O)c2ccc(-c3ccc(Cl)cc3)o2)cc(OC)c1	108	98.9	107	102	98.1	121	103	109	101	99.3	105	109	91.9	114	102	–	–	–	–	–	94.5	101	97.2	97.6	101	> 10	> 10	–	> 10	0	0	0	–	0	> 10
COc1ccc(Cl)c(Nc2ncnc3cc(OCC4CCN(C)CC4)c(OC)cc23)c1	93	108	99.1	89.9	68.3	94.5	102	89.7	75	28.5	99.1	105	90.6	96.6	87.7	104	97.2	103	95.8	77.7	95.5	99.3	89.7	76.6	27.3	1.42	> 10	> 10	1.49	2.9	6.7	0	1.4	6.7	–
C[C@@H]1CN(Cc2ccc(F)cc2)CCN1C(=O)COc1ccc(Cl)cc1NC(N)=O	98.2	95.7	92.9	81.3	66.6	97.1	104	98.1	104	85	93.3	101	87.7	51.9	19.1	103	96.1	99.3	95	72.8	103	113	93.3	104	93	> 10	0.635	–	> 10	3.6	0.1	10.8	1.9	0	–
Cn1cc(C(F)(F)F)nc1-c1ccc(OCC(O)CNCCOc2ccc(O)c(C(N)=O)c2)cc1 (stereo not drawn)	102	96.6	102	98.7	87.4	–	–	–	–	–	111	97	122	94.3	114	98.7	100	94	101	98.1	104	96.4	102	90.1	95.7	–	> 10	> 10	> 10	0.2	–	0	0	0	> 10
O=C(NC1(c2ccccc2)CC1)c1c(CN2CCC(N3CCCCC3)CC2)c(-c2cccc(C(F)(F)F)c2)nc2cc(Br)ccc12	95.4	88.3	112	98.8	55.2	97.1	90.2	96	85.8	1.2	93.6	101	104	102	45.4	98.5	95.1	101	96	15.7	93.3	98.3	102	99.3	38.4	2.02	3.4	2.81	3.09	2.5	7.8	2.7	5.2	3.4	–
O=C1NC(=O)/C(=C/c2ccc(-c3ccc(F)cc3O)o2)S1	94	103	96.3	105	72.5	116	109	102	98.2	77	96.2	96.2	95.9	96.6	106	103	101	91	104	91.2	102	100	99.3	100	81.2	> 10	> 10	> 10	> 10	0.9	1	0	0	0.5	–
O=c1cc(-c2cccc3c2Sc2ccccc2S3)oc(N2CCOCC2)c1	103	102	98.2	93.3	67.8	100	98.9	98.2	104	106	104	102	93.5	108	85.9	99.8	99.6	102	100	93.3	97.5	102	101	106	83.3	> 10	> 10	> 10	> 10	2.5	0	0.1	0	0.2	–
Nc1nccc2c1ncn2[C@@H]1O[C@H](CO)[C@@H](O)[C@@H]1O [3-deazaadenosine]	89.8	101	97.9	89.2	97	–	–	–	–	–	97.9	103	95.6	97.3	96.1	99.9	99.4	97.7	103	95.8	87.4	100	90.8	92.8	95.1	–	> 10	> 10	> 10	0	–	0	0	0	> 10
CCC(=O)N[C@@H]1Cc2ccccc2[C@H](c2ccccc2)C1 [4-P-PDOT]	103	95.4	100	95.1	94.4	105	94.6	104	114	102	106	111	99	88.9	108	–	–	–	–	–	95.9	97.4	100	96.1	98.5	> 10	> 10	–	> 10	0	0	0	–	0	> 10
O=c1cccc2n1C[C@H]1C[C@@H]2CN(CCN2C[C@@H]3C[C@H](C2)c2cccc(=O)n2C3)C1 [CC4]	98.2	100	91.4	93.1	98.3	87.1	104	101	119	104	91.3	91.9	93.9	97.4	93.4	–	–	–	–	–	97.4	94.6	98.8	92.8	101	> 10	> 10	–	> 10	0	0	0	–	0	> 10
Cc1sc2c(c1C)C(c1ccc(Cl)cc1)=N[C@@H](CC(N)=O)c1nnc(C)n1-2 [CPI-203]	100	95.8	88.9	76.3	70.5	98.3	105	100	78.3	60	91.8	94.3	81.3	40.2	35.2	93.9	94.4	86.1	57.9	43.6	96.4	93.9	73.7	15.4	11	–	0.186	0.302	0.172	4.7	4.7	13.2	9.3	18.6	–
Cc1noc2c1-c1ccccc1C(c1ccc(Cl)cc1)=N[C@H]2CC(N)=O [CPI-0610]	104	108	106	94.5	80.6	103	99.7	105	90	64.7	109	111	101	75.2	49.4	105	108	97.3	84.1	47.6	111	108	88.4	38.5	16.2	–	1.02	1.42	0.449	1.2	3.2	5.9	5.1	13	> 10
